Reference: US10940188B2, “Compounds and methods for treatment and prevention of Flavivirus infection” (priority 2016, dated 2021)

System: ZIKV production from SNB-19 cells
Assay: Infectious ZIKV production from SNB-19 cells, focus-forming unit assay on Vero cells
Assay type: cell-based, Zika virus
Protocol: FIGS. 2A-1, 2A-2, 2B-1, 2B-2, 2C-1, 2C-2, 2D-1, 2D-2, 2D-3, 2E-1, 2E-2, and 2F. […] Screening of select compounds for antiviral activity against ZIKV infection was carried out. Glioblastoma SNB-19 cells were treated with indicated compound at 10×AC50 (determined in the primary caspase screen) for 1 hour prior to inoculation with FSS-13025 (at MOI=1). Cells were harvested 24 hours post infection and analyzed by Western blot for ZIKV-NS1 or GAPDH (FIGS. 2A-1 and 2A-2). Titration of PHA-690509 on glioblastoma cells for anti-ZIKV activity. Three strains of virus (FSS-13025, PRVABC59, and MR766; MOI=1) were tested. Shown are sample western blot images (FIG. 2B-1) and ImageJ quantification (FIG. 2B-2). Values represent mean±s.d. (n=3; ***P<0.001; One-way ANOVA). Titration of Emricasan on SNB-19 cells for anti-ZIKV activity was conducted similarly (FIGS. 2C-1 and 2C-2). Values represent mean±s.d. […] Sample western blot (FIG. 2D-2) and ImageJ quantification (FIG. 2D-3) are shown for infection with the PRVABC59 strain (MOI=1). Results for additional strains are shown in FIGS. 6A-F. Values represent mean±s.d. […] The concentration of NS1 in the medium of infected SNB-19 cells collected 24 hours post-infection was quantified by a ZIKV-NS1 ELISA kit (FIGS. 2E-1 and 2E-2). […] Cell culture supernatant was collected 24 hours after infection, and infectious virions were quantified for focus-forming units (FFU) using Vero cells. […] Curves represent best fits for calculating IC50 values, and the insets report the calculated IC50 value for each compound.
FIGS. 18A, 18B, 18C-1, 18C-2, 18D, 18E, 18F, 18G-1, and 18G-2. […] 24 hours post infection, supernatants from SNB-19 cells were titrated onto naïve vero cells plated in a monolayer in 96-well plates for infectious focus-forming unit assay as previously described and focus forming units quantified. […] Immunofluorescence (IF) staining (FIG. 18C-1) and quantification (FIG. 18C-2) of ZIKV positive SNB-19 cells following infection with one of three ZIKV strains and treatment with emetine at 0.01, 0.1, or 1 μM. […]
FIG. 21. […] IC50's calculated using graphpad PRISM software. […]

SMILES | IC50 (Zika virus, SNB-19 cells, each of three ZIKV strains, read-out: IC50 of infectious ZIKV production) [nM] | potency on inhibition of ZIKV replication
CC[C@H]1CN2CCc3cc(OC)c(OC)cc3[C@@H]2C[C@@H]1C[C@H]1NCCc2cc(OC)c(OC)cc21 [Emetine] | ≤ 10 | –
O=C(Nc1ccc([N+](=O)[O-])cc1Cl)c1cc(Cl)ccc1O [Niclosamide] | – | submicromolar range
